Assay results taken from US10435405B2, “Pyrazolopyridine compounds and uses thereof” (Incyte Corporation, priority 2016, dated 2019).

Molecular target: HPK1 (Homo sapiens (Human), UniProt Q92918)
Assay: HPK1 Kinase Binding Assay
Method in brief: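 This is a LanthaScreen tracer-binding format: a tracer 222/Eu-anti-GST antibody mix (18 nM and 4 nM solution) is added to active HPK1 (4 nM solution) with 3-fold, 11-point compound dilutions. Incubation is 1 h at 25 °C in HEPES pH 7.5 buffer before reading, and Ki is determined.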

HPK1, sequence (Q92918 1-346): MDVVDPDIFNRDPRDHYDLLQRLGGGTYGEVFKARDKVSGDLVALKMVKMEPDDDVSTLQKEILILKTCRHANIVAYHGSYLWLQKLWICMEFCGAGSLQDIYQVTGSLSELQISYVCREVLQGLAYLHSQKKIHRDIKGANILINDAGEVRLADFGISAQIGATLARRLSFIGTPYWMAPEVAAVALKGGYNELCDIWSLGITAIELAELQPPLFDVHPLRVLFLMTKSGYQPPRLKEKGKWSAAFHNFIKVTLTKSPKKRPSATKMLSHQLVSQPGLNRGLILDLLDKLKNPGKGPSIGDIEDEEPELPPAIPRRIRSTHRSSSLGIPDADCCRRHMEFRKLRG

`CN1CCN(c2ccc(C(=O)Nc3n[nH]c4cnc(-c5c(F)cc(CN6CCC6)cc5F)cc34)cc2)CC1` [Example 142, N-(5-(4-(Azetidin-1-ylmethyl)-2,6-difluorophenyl)-1H-pyrazolo[3,4-c]pyridin-3-yl)-4-(4-methylpiperazin-1-yl)benzamide] gave a Ki of no more than 100 nM.
In the case of `COC1CN(Cc2cc(F)c(-c3cc4c(NC(=O)c5ccc(N6CCN(C)CC6)cc5)n[nH]c4cn3)c(F)c2)C1` [Example 143, N-(5-(2,6-Difluoro-4-((3-methoxyazetidin-1-yl)methyl)phenyl)-1H-pyrazolo[3,4-c]pyridin-3-yl)-4-(4-methylpiperazin-1-yl)benzamide], the Ki is reported as no more than 100 nM.
With `CNCc1cc(F)c(-c2cc3c(NC(=O)c4cnn(C)c4)n[nH]c3cn2)c(F)c1` [Example 144, N-(5-(2,6-Difluoro-4-((methylamino)methyl)phenyl)-1H-pyrazolo[3,4-c]pyridin-3-yl)-1-methyl-1H-pyrazole-4-carboxamide] the Ki was no more than 100 nM.
`CNCc1cc(F)c(-c2cc3c(NC(=O)c4cccc(N5CCN(C)CC5)c4)n[nH]c3cn2)c(F)c1` [Example 145, N-(5-(2,6-Difluoro-4-((methylamino)methyl)phenyl)-1H-pyrazolo[3,4-c]pyridin-3-yl)-3-(4-methylpiperazin-1-yl)benzamide] was tested, and the Ki was no more than 100 nM.
For `COc1cccc(C(=O)Nc2n[nH]c3cnc(-c4c(F)cc(CNC(C)C)cc4F)cc23)c1` [Example 146, N-(5-(2,6-Difluoro-4-((isopropylamino)methyl)phenyl)-1H-pyrazolo[3,4-c]pyridin-3-yl)-3-methoxybenzamide], the Ki was no more than 100 nM.
With `COC(=O)N1CCN(c2ccc(C(=O)Nc3n[nH]c4cnc(-c5c(F)cc(CNC(C)C)cc5F)cc34)cc2)CC1` [Example 147, Methyl 4-(4-(5-(2,6-difluoro-4-((isopropylamino)methyl)phenyl)-1H-pyrazolo[3,4-c]pyridin-3-ylcarbamoyl)phenyl)piperazine-1-carboxylate] the Ki was no more than 100 nM.
`COC(=O)N1CCN(c2ccc(C(=O)Nc3n[nH]c4cnc(-c5c(F)cc(CNC(C)C)cc5F)cc34)c(F)c2)CC1` [Example 148, Methyl 4-(4-(5-(2,6-difluoro-4-((isopropylamino)methyl)phenyl)-1H-pyrazolo[3,4-c]pyridin-3-ylcarbamoyl)-3-fluorophenyl)piperazine-1-carboxylate] was tested, and the Ki was no more than 100 nM.
With `COc1cc(N2CCN(C)CC2)ccc1C(=O)Nc1n[nH]c2cnc(-c3c(F)cc(CNC(C)C)cc3F)cc12` [Example 149, N-(5-(2,6-Difluoro-4-((isopropylamino)methyl)phenyl)-1H-pyrazolo[3,4-c]pyridin-3-yl)-2-methoxy-4-(4-methylpiperazin-1-yl)benzamide] the Ki was no more than 100 nM.
`CC(C)NCc1cc(F)c(-c2cc3c(NC(=O)c4cccc(N5CCN(C)CC5)c4F)n[nH]c3cn2)c(F)c1` [Example 150, N-(5-(2,6-Difluoro-4-((isopropylamino)methyl)phenyl)-1H-pyrazolo[3,4-c]pyridin-3-yl)-2-fluoro-3-(4-methylpiperazin-1-yl)benzamide] was tested, and the Ki was no more than 100 nM.
`CC(C)NCc1cc(F)c(-c2cc3c(NC(=O)c4ccc(F)c(N5CCN(C)CC5)c4)n[nH]c3cn2)c(F)c1` [Example 151, N-(5-(2,6-Difluoro-4-((isopropylamino)methyl)phenyl)-1H-pyrazolo[3,4-c]pyridin-3-yl)-4-fluoro-3-(4-methylpiperazin-1-yl)benzamide] showed a Ki of no more than 100 nM.
For `Cc1cccc(F)c1-c1cc2c(NC(=O)c3ccc(N4CCN(C)CC4)cc3)n[nH]c2cn1` [Example 152, N-(5-(2-Fluoro-6-methylphenyl)-1H-pyrazolo[3,4-c]pyridin-3-yl)-4-(4-methylpiperazin-1-yl)benzamide], the Ki was no more than 100 nM.
`CN1CCN(c2ccc(C(=O)Nc3n[nH]c4cnc(-c5c(F)cccc5C(F)(F)F)cc34)cc2)CC1` [Example 153, N-(5-(2-Fluoro-6-(trifluoromethyl)phenyl)-1H-pyrazolo[3,4-c]pyridin-3-yl)-4-(4-methylpiperazin-1-yl)benzamide] showed a Ki of no more than 100 nM.
With `CCNCc1cc(F)c(-c2cc3c(NC(=O)c4ccc(N5CCN(C)CC5)cc4)n[nH]c3cn2)c(C(F)(F)F)c1` [Example 154, N-(5-(4-((Ethylamino)methyl)-2-fluoro-6-(trifluoromethyl)phenyl)-1H-pyrazolo[3,4-c]pyridin-3-yl)-4-(4-methylpiperazin-1-yl)benzamide] the Ki was no more than 100 nM.
In the case of `CC(C)NCc1cc(F)c(-c2cc3c(C(=O)Nc4ccc(N5CCN(C)CC5)cc4)n[nH]c3cn2)c(F)c1` [Example 155, 5-(2,6-Difluoro-4-((isopropylamino)methyl)phenyl)-N-(4-(4-methylpiperazin-1-yl)phenyl)-1H-pyrazolo[3,4-c]pyridine-3-carboxamide], the Ki is reported as no more than 100 nM.
In the case of `CN1CCN(c2ccc(C(=O)Nc3n[nH]c4cnc(-c5c(F)cc(NC(=O)CN6CCCC6)cc5F)cc34)cc2)CC1` [Example 156, N-(5-(2,6-Difluoro-4-(2-(pyrrolidin-1-yl)acetamido)phenyl)-1H-pyrazolo[3,4-c]pyridin-3-yl)-4-(4-methylpiperazin-1-yl)benzamide], the Ki is reported as no more than 100 nM.
Compound `Cc1cccc(F)c1-c1cc2c(NC(=O)c3ccc(N4CCN(C)CC4)cc3N)n[nH]c2cn1` [Example 157, 2-Amino-N-(5-(2-fluoro-6-methylphenyl)-1H-pyrazolo[3,4-c]pyridin-3-yl)-4-(4-methylpiperazin-1-yl)benzamide] has a Ki of no more than 100 nM.
In the case of `Cc1cccc(F)c1-c1cc2c(NC(=O)c3ccc(N4CCN(C)CC4)cc3NCC(C)O)n[nH]c2cn1` (stereo not shown) [Example 158, N-(5-(2-Fluoro-6-methylphenyl)-1H-pyrazolo[3,4-c]pyridin-3-yl)-2-(2-hydroxypropylamino)-4-(4-methylpiperazin-1-yl)benzamide], the Ki is reported as no more than 100 nM.
Compound `Cc1cccc(F)c1-c1cc2c(NC(=O)c3ccc(N4CCN(C)CC4)cc3NCc3ccnn3C)n[nH]c2cn1` [Example 159, N-(5-(2-Fluoro-6-methylphenyl)-1H-pyrazolo[3,4-c]pyridin-3-yl)-2-((1-methyl-1H-pyrazol-5-yl)methylamino)-4-(4-methylpiperazin-1-yl)benzamide] has a Ki of no more than 100 nM.
With `Cc1cccc(F)c1-c1cc2c(NC(=O)c3ccc(N4CCN(C)CC4)cc3NC3CCC(C#N)C3)n[nH]c2cn1` (stereo not shown) [Example 160, 2-(3-Cyanocyclopentylamino)-N-(5-(2-fluoro-6-methylphenyl)-1H-pyrazolo[3,4-c]pyridin-3-yl)-4-(4-methylpiperazin-1-yl)benzamide] the Ki was no more than 100 nM.
`CNCc1cc(F)c(-c2cc3c(-c4cnn(-c5ccccc5C#N)c4)n[nH]c3cn2)c(F)c1` [Example 161, 2-(4-(5-(2,6-Difluoro-4-((methylamino)methyl)phenyl)-1H-pyrazolo[3,4-c]pyridin-3-yl)-1H-pyrazol-1-yl)benzonitrile] gave a Ki of no more than 100 nM.
`CNCc1cc(F)c(-c2cc3c(-c4cnn(C5CNC5)c4)n[nH]c3cn2)c(F)c1` [Example 162, 1-(4-(3-(1-(Azetidin-3-yl)-1H-pyrazol-4-yl)-1H-pyrazolo[3,4-c]pyridin-5-yl)-3,5-difluorophenyl)-N-methylmethanamine] gave a Ki of no more than 100 nM.
With `CNCc1cc(F)c(-c2cc3c(-c4ccnc(N5CCN(C)CC5)c4)n[nH]c3cn2)c(F)c1` [Example 163, 1-(3,5-Difluoro-4-(3-(2-(4-methylpiperazin-1-yl)pyridin-4-yl)-1H-pyrazolo[3,4-c]pyridin-5-yl)phenyl)-N-methylmethanamine] the Ki was no more than 100 nM.
